Consider five compounds from publication PMC3364195, “Fractionation of a Herbal Antidiarrheal Medicine Reveals Eugenol as an Inhibitor of Ca^2+-Activated Cl^− Channel TMEM16A” (PLoS ONE, 2012).

“And” between values parts separate entries of the source, which are not always exact repeats. Equal values may be shown once. “Also recorded” adds a separate entry of the source.

The target of one series is T1, CFTR (Homo sapiens, UniProt P13569).
T1 construct: expressed in transfected cells; host or cells: FRT cells
In words: Short-circuit current in FRT cells expressing wild type CFTR. It is filed as cell-based. Particulars: forskolin 20 µM stimulated.

Series [1] has as its target T2, human TMEM16A (Homo sapiens, UniProt Q5XXA6).
T2 sequence (Q5XXA6 1-986): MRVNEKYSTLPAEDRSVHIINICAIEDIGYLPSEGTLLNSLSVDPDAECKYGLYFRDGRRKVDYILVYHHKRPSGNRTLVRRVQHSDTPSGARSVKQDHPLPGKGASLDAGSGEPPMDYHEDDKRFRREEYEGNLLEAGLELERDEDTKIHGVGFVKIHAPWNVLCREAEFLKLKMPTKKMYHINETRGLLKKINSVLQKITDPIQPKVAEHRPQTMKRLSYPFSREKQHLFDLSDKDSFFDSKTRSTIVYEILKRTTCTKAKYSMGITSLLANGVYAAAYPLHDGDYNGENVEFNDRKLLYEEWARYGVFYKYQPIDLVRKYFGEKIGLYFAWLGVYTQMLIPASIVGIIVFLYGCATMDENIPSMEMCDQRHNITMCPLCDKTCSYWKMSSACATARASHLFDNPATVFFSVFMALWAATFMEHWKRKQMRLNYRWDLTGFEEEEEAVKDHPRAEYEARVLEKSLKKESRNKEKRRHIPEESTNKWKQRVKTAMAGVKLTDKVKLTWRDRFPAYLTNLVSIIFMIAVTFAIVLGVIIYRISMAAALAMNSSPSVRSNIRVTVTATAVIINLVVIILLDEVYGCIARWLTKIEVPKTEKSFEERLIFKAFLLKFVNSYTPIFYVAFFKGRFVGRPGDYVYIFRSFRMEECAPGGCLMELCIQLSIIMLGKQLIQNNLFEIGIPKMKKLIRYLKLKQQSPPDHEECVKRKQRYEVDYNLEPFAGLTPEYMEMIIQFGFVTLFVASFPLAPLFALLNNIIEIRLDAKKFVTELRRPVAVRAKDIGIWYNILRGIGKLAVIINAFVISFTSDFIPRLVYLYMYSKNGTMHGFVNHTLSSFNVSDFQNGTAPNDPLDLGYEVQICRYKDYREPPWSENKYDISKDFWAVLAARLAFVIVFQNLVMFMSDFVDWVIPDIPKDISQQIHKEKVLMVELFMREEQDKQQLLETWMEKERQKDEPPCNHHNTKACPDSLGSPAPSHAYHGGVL
In words: Short-circuit current in TMEM16A-expressing FRT cells. It is filed as cell-based. As to the method: (§1) FRT cells stably expressing human TMEM16A and the halide sensor YFP-H148Q/I152L/F46L were generated as described. Cells were plated in 96-well black-walled microplates (Corning Inc., Corning, NY) at a density of 20,000 cells per well in Coon's modified F12 medium supplemented with 5% fetal calf serum, 2 mM L-glutamine, 100 U/mL penicillin and 100 µg/mL streptomycin. T84 cells were cultured in DMEM/Ham's F-12 (1∶1) medium containing 10% FBS, 100 U/ml penicillin and 100 µg/ml streptomycin. A commercially available Thai herbal formulation (Krisanaklan, Osotspa Inc., Bangkapi, Thailand) consists of an ethanol/water (54∶46) extract in which each 100 mL was obtained from 10 g of Aquilaria crassna bark, 33.3 g of clove flower bud, 2 g of Terminalia triptera Stapf bark and 4.8 g of camphor flower bud. HPLC grade solvents were purchased from Fisher Scientific (Fairlawn, VA) and EMD Chemical Inc. (Philadelphia, PA). Eugenol and eugenol analog 2 were purchased from Sigma-Aldrich (St. Louis, MO). Other eugenol analogs were purchased from Fisher Scientific (Pittsburgh, PA).
(§2) Snapwell inserts containing TMEM16A-expressing FRT cells or T84 cells were mounted in Ussing chambers (Physiologic Instruments, San Diego, CA). Activators and inhibitors (herbal formulation, eugenol, ionomycin, tannic acid, forskolin, CFTRinh-172, ATP, Eact, T16Ainh-A01) were added to the apical solution and an equal volume of vehicle was added at the same time to the basolateral solution. Symmetrical HCO3 ^−-buffered solutions were used for T84 cells. For FRT cells, the hemichambers were filled with a half-Cl^− solution (apical) and the HCO3 ^−-buffered solution (basolateral), and the basolateral membrane was permeabilized with 250 µg/mL amphotericin B. Cells were bathed for a 10 min stabilization period and aerated with 95% O2/5% CO2 at 37°C or room temperature. Short-circuit current was measured using an EVC4000 Multi-Channel V/I Clamp (World Precision Instruments, Sarasota, FL).

The target of series [2] is T2, human TMEM16A. The series is described as follows: Plate-reader YFP fluorescence assay of TMEM16A-mediated I- influx in FRT cells. It is filed as cell-based. As to the method: as §1, with “HPLC grade solvents were purchased from Fisher Scientific (Fairlawn, VA) and EMD Chemical Inc. (Philadelphia, PA). Eugenol and eugenol analog 2 were purchased from Sigma-Aldrich (St. Louis, MO). Other eugenol analogs were purchased from Fisher Scientific (Pittsburgh, PA).” left out
YFP fluorescence measurements in TMEM16A expressing FRT cells were carried out on a fluorescence plate reader (Optima; BMG Labtech, Durham, NC) equipped with dual syringe pumps and 500±10 nm excitation and 535±15 nm emission filters as described. […] After 10 min incubation, each well was assayed individually for TMEM16A-mediated I^− influx by recording fluorescence continuously (400 ms per point) for 2 s (baseline), followed by addition of 100 µL of a 140 mM I^− solution containing 200 µM ATP. The initial rate of I^− influx was computed from fluorescence data by non-linear regression.

Series [3] relates to cytoplasmic Ca2+ elevation in FRT cells. The series is described as follows: Cytoplasmic Ca2+ measurement (Fluo-4) in FRT cells. It counts as cell-based. Particulars: Fluo-4 fluorescence, 10 min incubation. The protocol:
FRT cells in 96-well plates were loaded with Fluo-4 NW (Invitrogen, Carlsbad, CA) at 48 h after plating. Fluo-4 fluorescence was measured continuously using a FLUOstar Optima fluorescence plate reader (BMG Labtechnologies) equipped with syringe pump for addition of ATP.

For another series, the system named is TMEM16A. The series is described as follows: Whole-cell patch-clamp on TMEM16A-expressing FRT cells. It is filed as cell-based, human. Particulars: 150 µM eugenol, 5 µM Eact, ±80 mV. As to the method:
Whole-cell recordings were made at room temperature on TMEM16A-expressing FRT cells as described. The pipette solution contained (in mM): 130 CsCl, 0.5 EGTA, 1 MgCl2, 1 Tris-ATP, and10 HEPES (pH 7.2). The bath solution contained (in mM): 140 NMDG-Cl, 1 CaCl2, 1 MgCl2, 10 glucose and 10 HEPES (pH 7.4). TMEM16A was activated by 5 µM Eact and then inhibited by 150 µM eugenol. Whole-cell currents were elicited by applying hyperpolarizing and depolarizing voltage pulses from a holding potential of 0 mV to potentials between −80 mV and +80 mV in 20 mV steps. Currents were digitized, filtered at 5 kHz, and sampled at 1 kHz.
Background: The patch-clamp technique gives a direct electrical read-out from membranes.

In the next series the test system is mouse ileum. The series is described as follows: Intestinal smooth muscle contraction, mouse ileal segments ex vivo. The protocol:
Wild type CD1 mice (age 8–10 weeks) were killed by avertin overdose (200 mg/kg). The ileum was removed and washed with ice-cold HCO3 ^−-buffered solution. The ends of the ileal segments were tied with silk thread and connected to a force transducer. Ileal segments were equilibrated for 60 min with a resting force of ∼1 mN, with changes of the bathing solution every 15 min. […] Data were recorded using MP100, Biopac digital acquisition system and analyzed using Acknowledge 3.5.7 software.

Series [4] has as its system hyperpolarization-activated cyclic nucleotide-gated Na+ and K+ channels. The arrangement: method as in earlier work. Particulars: trigeminal ganglion neurons; ref 27 (Yeon et al.); read-out: IC50 for inhibition of HCN channels; cited from earlier work.
Series [5] concerns Ca2+ current in cardiac myocytes. More on the design: method as in PMID 15550789. Particulars: read-out: IC50 for inhibition of Ca2+ current; cited from earlier work.
Another series concerns tracheal smooth muscle. More on the design: method as in PMID 21077946. Conditions: read-out: IC50 for inhibition of tracheal smooth muscle contraction; cited from earlier work.
The conditions of series [6]: cited from earlier work.
Series [7] concerns CaCC in T84 human colonic epithelial cells. The series is described as follows: Short-circuit current in T84 cells (ATP-stimulated native CaCC Cl- current). It counts as cell-based. Conditions: 100 µM tannic acid. As to the method:
as §2

[8] abbreviates: rat, oral 40 mg/kg, ref 30 (Lionnet et al.).

T1 sequence (P13569 whole entry, species assumed): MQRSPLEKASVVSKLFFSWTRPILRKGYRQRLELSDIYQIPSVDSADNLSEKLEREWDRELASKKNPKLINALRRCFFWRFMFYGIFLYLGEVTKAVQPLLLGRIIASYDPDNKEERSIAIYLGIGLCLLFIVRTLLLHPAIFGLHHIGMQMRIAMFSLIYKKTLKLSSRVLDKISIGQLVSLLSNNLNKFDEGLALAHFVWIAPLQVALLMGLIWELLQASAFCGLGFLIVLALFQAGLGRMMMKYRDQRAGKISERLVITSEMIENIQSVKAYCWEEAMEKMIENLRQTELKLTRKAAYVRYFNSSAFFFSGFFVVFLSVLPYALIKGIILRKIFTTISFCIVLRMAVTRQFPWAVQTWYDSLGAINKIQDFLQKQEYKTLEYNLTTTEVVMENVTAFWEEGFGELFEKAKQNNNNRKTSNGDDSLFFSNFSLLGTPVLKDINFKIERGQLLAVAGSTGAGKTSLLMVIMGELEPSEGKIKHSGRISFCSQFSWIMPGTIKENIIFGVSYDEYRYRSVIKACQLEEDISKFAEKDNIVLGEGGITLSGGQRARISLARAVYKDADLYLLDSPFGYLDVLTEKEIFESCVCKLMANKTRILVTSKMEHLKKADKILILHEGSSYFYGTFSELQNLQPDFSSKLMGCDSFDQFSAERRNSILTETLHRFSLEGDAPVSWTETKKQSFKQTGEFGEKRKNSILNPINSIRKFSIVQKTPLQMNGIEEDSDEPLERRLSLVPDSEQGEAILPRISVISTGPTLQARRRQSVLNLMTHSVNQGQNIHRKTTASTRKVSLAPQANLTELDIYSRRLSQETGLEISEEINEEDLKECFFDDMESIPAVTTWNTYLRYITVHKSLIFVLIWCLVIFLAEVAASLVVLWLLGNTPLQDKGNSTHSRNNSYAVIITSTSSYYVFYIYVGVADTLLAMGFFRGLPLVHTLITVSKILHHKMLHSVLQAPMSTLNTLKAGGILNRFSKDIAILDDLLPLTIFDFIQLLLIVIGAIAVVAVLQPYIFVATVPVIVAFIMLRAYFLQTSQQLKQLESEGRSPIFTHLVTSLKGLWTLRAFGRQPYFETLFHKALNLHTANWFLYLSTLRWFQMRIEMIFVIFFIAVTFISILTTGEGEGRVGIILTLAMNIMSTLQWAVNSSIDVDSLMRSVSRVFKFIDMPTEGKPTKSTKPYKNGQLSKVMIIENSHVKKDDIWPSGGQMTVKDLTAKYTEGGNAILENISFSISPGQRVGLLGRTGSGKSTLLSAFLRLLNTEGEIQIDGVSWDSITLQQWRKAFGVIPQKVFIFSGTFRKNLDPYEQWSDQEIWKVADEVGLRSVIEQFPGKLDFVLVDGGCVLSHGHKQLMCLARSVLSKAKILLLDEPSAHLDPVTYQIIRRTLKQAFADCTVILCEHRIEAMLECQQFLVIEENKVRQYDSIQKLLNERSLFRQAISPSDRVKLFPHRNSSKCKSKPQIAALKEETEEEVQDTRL
Protocol for CFTR: Snapwell inserts containing TMEM16A-expressing FRT cells or T84 cells were mounted in Ussing chambers (Physiologic Instruments, San Diego, CA). Activators and inhibitors (herbal formulation, eugenol, ionomycin, tannic acid, forskolin, CFTRinh-172, ATP, Eact, T16Ainh-A01) were added to the apical solution and an equal volume of vehicle was added at the same time to the basolateral solution. […] For FRT cells, the hemichambers were filled with a half-Cl^− solution (apical) and the HCO3 ^−-buffered solution (basolateral), and the basolateral membrane was permeabilized with 250 µg/mL amphotericin B. Cells were bathed for a 10 min stabilization period and aerated with 95% O2/5% CO2 at 37°C or room temperature. Short-circuit current was measured using an EVC4000 Multi-Channel V/I Clamp (World Precision Instruments, Sarasota, FL).

Consider `O=C(O)c1ccc(/C=C2\SC(=S)N(c3cccc(C(F)(F)F)c3)C2=O)cc1` [CFTRinh-172, reference compound], for which the “inhibition of CFTR Cl- current” value against CFTR (10 µM CFTRinh-172) was “completely inhibited”.

Consider `CCc1c(C)nc(SCC(=O)Nc2nc(-c3ccc(OC)cc3)cs2)[nH]c1=O` [T16Ainh-A01, reference compound], for which the “inhibition of TMEM16A Cl- current by 1 µM T16Ainh-A01” value at human TMEM16A [1] (1 µM) is around 50%. Besides, the “inhibition of Eact-stimulated TMEM16A Cl- current” value at human TMEM16A [1] (Eact 10 µM, 10 µM T16Ainh-A01) is recorded as “completely inhibited; also recorded: totally inhibited”.

Usually inhibition stands for the percentage by which the read-out fell short of the control. As a reminder, the IC50 is the concentration that gives 50% inhibition. Consider `C=CCc1ccc(O)c(OC)c1` [compound 1, 4-allyl-2-methoxyphenol], for which, at human TMEM16A [1], the “extent of inhibition of TMEM16A Cl- conductance” value is “fully inhibited”. For the same compound, the inhibition at 1000 µM at human TMEM16A [1] (FRT, read-out: inhibition of TMEM16A at 1 mM) was above 95%. Moreover, the IC50 is 154 µM and ~150 µM on human TMEM16A [1] (IC50 for inhibition of TMEM16A Cl- current, Eact (10 µM)-stimulated short-circuit current, FRT cells); around 150 µM in the series on mouse ileum (Mus musculus, read-out: IC50 for inhibition of intestinal smooth muscle contraction); 157 µM in series [4]; around 300 µM in series [5]; around 600 µM in the series with tracheal smooth muscle. Moreover, the “inhibition of ionomycin-activated TMEM16A Cl- current” value at human TMEM16A [1] (eugenol added 5 min prior to 1 µM ionomycin, amphotericin B permeabilized, Cl- gradient) is given as “concentration-dependent inhibition”. In addition, testing at 200 µM on human TMEM16A [2] (FRT) gave an inhibition of 51 ± 7%. In addition, in [3], the “effect on cytoplasmic Ca2+ in response to ATP” value was “did not inhibit”. In the series with TMEM16A, the “block mechanism of TMEM16A chloride current” value is given as “voltage-independent block”. Besides, at CFTR (eugenol up to 1 mM), the “effect on CFTR Cl- conductance” value is given as “little effect”. Moreover, the “inhibition of ileal contractions following activation by Eact” value in the series on mouse ileum (atropine added initially) is “inhibition”. The “effect on contraction frequency” value with mouse ileum (mouse ileal segments ex vivo) is listed as “small effect”. Besides, the “effect on resting and maximal tone” value with mouse ileum (mouse ileal segments ex vivo) is listed as “more marked effect”. Besides, the “inhibition of spontaneous intestinal contractions” value with mouse ileum (mouse ileal segments ex vivo, listed as Eugenol) is on record as “strong inhibition”; in the series with mouse ileum (mouse ileal segments ex vivo, listed as eugenol) it was “inhibited by eugenol in a dose-dependent manner”. Also, the “serum concentration following intravenous administration” value in [6] (intravenous) is 180000 nM. Moreover, in series [6] (setting [8]), the “concentration in brain and spinal cord after oral administration” value is 2800 nM. Besides, in [6] (setting [8]), the “concentration in serum after oral administration” value was 600 nM. In series [6] (rats), the “serum concentration (similar oral study)” value was 1500 nM.

For orientation: % inhibition means the percentage by which the read-out fell short of the control. Low values mean little suppression, high ones strong suppression. As to `CCCc1ccc(O)c(OC)c1` [compound 5], on human TMEM16A [2], the “% inhibition at 200 μM” value was 38 ± 7%.

On to tannic acid, for which, in series [7], the “inhibition of ATP-stimulated CaCC Cl- current” value is reported as “completely inhibited”.
